According to ChEMBL document CHEMBL1132762, “RGD mimetics containing a central hydantoin scaffold: alpkha(v)beta3 vs alpha(IIb)beta3 selectivity requirements” (Bioorg Med Chem Lett, 2000):

How the values were obtained:
[1] = target: Integrin alpha-V/beta-3 (Homo sapiens, UniProt P05106+P06756); assay: Inhibition of Kistrin binding to integrin alphaV-beta3; assay type: protein-complex assay
[2] = target: Integrin alpha-IIb/beta-3 (Homo sapiens, UniProt P05106+P08514); assay: Inhibition of fibrinogen binding to integrin alphaIIb-beta3; assay type: protein-complex assay
Chain of Integrin alpha-IIb/beta-3 (P05106 27-788 limits assumed): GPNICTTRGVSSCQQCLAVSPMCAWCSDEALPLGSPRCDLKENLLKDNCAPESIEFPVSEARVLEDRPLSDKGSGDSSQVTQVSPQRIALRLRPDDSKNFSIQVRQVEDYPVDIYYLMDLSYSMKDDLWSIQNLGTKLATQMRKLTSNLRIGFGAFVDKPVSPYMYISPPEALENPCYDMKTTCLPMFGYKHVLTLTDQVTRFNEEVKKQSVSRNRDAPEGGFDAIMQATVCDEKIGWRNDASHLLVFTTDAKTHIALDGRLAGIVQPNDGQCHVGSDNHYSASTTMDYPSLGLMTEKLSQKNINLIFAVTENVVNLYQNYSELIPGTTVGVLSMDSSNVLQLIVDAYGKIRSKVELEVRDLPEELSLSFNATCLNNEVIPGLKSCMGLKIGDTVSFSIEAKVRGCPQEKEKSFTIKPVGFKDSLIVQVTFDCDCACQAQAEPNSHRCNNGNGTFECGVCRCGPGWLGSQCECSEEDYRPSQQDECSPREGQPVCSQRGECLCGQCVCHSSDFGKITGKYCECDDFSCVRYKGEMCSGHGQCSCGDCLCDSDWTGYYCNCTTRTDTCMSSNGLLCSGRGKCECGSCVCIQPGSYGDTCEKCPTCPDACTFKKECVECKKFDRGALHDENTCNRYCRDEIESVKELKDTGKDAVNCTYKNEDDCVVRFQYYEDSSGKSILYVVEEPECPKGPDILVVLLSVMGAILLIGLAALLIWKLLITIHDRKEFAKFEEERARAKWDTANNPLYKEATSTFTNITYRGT
Chain of Integrin alpha-IIb/beta-3 (P08514 32-887 limits assumed): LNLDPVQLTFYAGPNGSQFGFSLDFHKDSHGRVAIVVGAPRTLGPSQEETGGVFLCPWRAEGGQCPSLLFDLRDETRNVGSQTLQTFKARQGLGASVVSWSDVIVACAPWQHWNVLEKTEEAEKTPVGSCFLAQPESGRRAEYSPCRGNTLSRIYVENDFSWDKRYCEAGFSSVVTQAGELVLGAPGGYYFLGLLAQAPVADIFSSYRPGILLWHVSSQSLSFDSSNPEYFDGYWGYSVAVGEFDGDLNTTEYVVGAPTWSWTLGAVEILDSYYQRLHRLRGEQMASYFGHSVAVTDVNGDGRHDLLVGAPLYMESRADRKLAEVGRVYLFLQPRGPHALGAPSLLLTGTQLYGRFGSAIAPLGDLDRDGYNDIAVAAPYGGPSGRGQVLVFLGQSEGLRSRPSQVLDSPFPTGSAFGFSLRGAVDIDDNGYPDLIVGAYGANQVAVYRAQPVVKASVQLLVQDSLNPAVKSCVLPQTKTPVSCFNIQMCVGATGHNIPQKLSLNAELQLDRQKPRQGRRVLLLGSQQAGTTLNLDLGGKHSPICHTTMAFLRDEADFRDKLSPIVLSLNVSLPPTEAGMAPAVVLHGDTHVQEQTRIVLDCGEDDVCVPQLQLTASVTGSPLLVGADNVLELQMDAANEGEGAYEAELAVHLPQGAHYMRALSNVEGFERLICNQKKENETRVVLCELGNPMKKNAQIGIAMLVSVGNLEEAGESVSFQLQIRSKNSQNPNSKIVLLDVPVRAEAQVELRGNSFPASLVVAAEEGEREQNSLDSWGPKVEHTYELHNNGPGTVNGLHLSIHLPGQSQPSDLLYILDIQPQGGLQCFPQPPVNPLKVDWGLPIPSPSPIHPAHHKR
Chain of Integrin alpha-IIb/beta-3 (P08514 891-1039 limits assumed): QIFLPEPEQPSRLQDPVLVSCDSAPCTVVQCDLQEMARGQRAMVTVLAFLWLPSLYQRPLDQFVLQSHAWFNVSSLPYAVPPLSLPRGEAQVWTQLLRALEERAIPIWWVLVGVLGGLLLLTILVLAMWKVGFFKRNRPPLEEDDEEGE

Chain of Integrin alpha-V/beta-3 (P05106 27-788 limits assumed): as the sequence (P05106 27-788 limits assumed) above
Chain of Integrin alpha-V/beta-3 (P06756 31-889 limits assumed): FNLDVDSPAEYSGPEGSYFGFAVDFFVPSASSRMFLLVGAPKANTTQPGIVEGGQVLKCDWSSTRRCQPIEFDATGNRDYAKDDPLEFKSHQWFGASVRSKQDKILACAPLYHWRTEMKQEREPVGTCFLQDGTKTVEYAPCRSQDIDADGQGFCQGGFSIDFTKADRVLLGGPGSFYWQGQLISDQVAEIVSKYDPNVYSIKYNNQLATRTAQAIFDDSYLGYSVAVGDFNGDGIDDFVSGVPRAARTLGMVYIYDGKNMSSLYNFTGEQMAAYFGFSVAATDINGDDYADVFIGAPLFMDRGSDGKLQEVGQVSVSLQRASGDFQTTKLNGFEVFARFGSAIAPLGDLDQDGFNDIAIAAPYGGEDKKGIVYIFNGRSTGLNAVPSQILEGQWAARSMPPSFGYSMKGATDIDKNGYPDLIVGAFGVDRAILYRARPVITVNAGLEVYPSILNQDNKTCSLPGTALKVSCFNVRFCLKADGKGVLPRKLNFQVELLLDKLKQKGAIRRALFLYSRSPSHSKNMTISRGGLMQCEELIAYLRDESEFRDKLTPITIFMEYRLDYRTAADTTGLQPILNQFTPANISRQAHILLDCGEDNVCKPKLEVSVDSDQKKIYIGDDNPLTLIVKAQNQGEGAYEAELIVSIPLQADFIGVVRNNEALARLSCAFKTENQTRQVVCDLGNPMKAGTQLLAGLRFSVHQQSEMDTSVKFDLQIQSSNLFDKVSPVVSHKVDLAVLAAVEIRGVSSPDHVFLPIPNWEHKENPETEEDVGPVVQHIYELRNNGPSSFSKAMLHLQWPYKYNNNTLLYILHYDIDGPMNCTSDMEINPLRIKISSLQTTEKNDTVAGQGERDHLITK
Chain of Integrin alpha-V/beta-3 (P06756 891-1048 limits assumed): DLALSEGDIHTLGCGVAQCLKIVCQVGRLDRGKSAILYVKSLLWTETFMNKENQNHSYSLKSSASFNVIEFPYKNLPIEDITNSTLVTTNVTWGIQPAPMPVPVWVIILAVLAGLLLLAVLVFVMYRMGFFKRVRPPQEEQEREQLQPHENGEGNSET

Structure (SMILES)	IC50 [1] [nM]	IC50 [2] [nM]
N=C(N)NCCC[C@@H]1NC(=O)N(CC(=O)NCC(/N=C(\S)NCc2ccccc2)C(=O)O)C1=O (some centres not stated)	3000	10000
N=C(N)NC[C@@H]1NC(=O)N(CC(=O)NCC(NC(=O)OCc2ccccc2)C(=O)O)C1=O (some centres not stated)	15000	10000
CCCCS(=O)(=O)NC(CNC(=O)CN1C(=O)N[C@@H](CCCN=C(N)N)C1=O)C(=O)O (some centres not stated)	760	350
N=C(N)NCCC[C@@H]1NC(=O)N(CC(=O)NCC(NC(=O)OCc2ccccc2)C(=O)O)C1=O (some centres not stated)	80	2400
N=C(N)NCCC[C@@H]1NC(=O)N(CC(=O)NCC(NC(=O)CCc2ccccc2)C(=O)O)C1=O (some centres not stated)	350	550
N=C(N)NCC[C@@H]1NC(=O)N(CC(=O)NCC(NC(=O)OCc2ccccc2)C(=O)O)C1=O (some centres not stated)	5000	10000
O=C(CN1C(=O)N[C@@H](CCCNC2=NCCN2)C1=O)NCC(NC(=O)OCc1ccccc1)C(=O)O (some centres not stated)	20	> 10000
O=C(CN1C(=O)N[C@@H](CCCNc2ncccn2)C1=O)NCC(NC(=O)OCc1ccccc1)C(=O)O (some centres not stated)	1660	> 10000
N=C(N)NCCC[C@@H]1NC(=O)N(CC(=O)NCC(NC(=O)c2ccc3ccccc3c2)C(=O)O)C1=O (some centres not stated)	200	200

Continued by falling IC50 [1], values first:

IC50 [1] [nM]	IC50 [2] [nM]	Structure (SMILES)
15000	–	O=C(C[C@@H]1NC(=O)N(CC(=O)NCC(NC(=O)OCc2ccccc2)C(=O)O)C1=O)NCc1nc2ccccc2[nH]1 (some centres not stated)
580	> 10000	O=C(CN1C(=O)N[C@@H](CC(=O)NNC2=NCCN2)C1=O)NCC(NC(=O)OCc1ccccc1)C(=O)O (some centres not stated)
570	180	N=C(N)NCCC[C@@H]1NC(=O)N(CC(=O)NCC(NC(=O)NCc2ccccc2)C(=O)O)C1=O (some centres not stated)
200	850	N=C(N)NCCCC[C@@H]1NC(=O)N(CC(=O)NCC(NC(=O)OCc2ccccc2)C(=O)O)C1=O (some centres not stated)
40	> 10000	O=C(CN1C(=O)N[C@@H](CCCNc2nc3ccccc3[nH]2)C1=O)NCC(NC(=O)OCc1ccccc1)C(=O)O (some centres not stated)
